The target in test [1] is Muscarinic acetylcholine receptor M1 (Homo sapiens, UniProt P11229). As to the kind of experiment: Binding affinity to human M1 receptor expressed in CHO cells measured after 90 mins by radioligand binding assay. It is filed as cell-based.
In test [2] the target is Alpha-2B adrenergic receptor (Homo sapiens) (UniProt P18089). Conditions: HEK-T, 10 uM.
The target in test [3] is Alpha-2A adrenergic receptor (Homo sapiens, UniProt P08913). As to the kind of experiment: Displacement of [3H]Rauwolscine from human Alpha2A receptor expressed in MDCK cells measured after 90 mins by microbeta scintillation counting method. It is filed as cell-based.
Chain of Alpha-2A adrenergic receptor (P08913 whole entry): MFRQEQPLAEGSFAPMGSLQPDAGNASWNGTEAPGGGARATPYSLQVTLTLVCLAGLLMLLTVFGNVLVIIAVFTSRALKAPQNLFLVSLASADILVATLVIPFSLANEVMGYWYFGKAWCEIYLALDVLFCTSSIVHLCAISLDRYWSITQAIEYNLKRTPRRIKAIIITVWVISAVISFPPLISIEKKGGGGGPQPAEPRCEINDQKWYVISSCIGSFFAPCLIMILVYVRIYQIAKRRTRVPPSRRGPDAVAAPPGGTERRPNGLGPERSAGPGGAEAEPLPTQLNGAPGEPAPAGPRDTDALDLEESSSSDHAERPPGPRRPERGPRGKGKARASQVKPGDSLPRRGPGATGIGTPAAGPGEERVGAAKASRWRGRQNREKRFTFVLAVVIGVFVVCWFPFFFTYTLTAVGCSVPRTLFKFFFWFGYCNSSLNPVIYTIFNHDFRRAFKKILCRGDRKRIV
The target in test [4] is Alpha-1A adrenergic receptor (Homo sapiens, UniProt P35348). Briefly: Displacement of [3H]Prazosin from human Alpha1A receptor measured after 90 mins by microbeta scintillation counting method. A general note: Displacement assays read how much labelled ligand stays bound in the presence of the test substance.
Chain of Alpha-1A adrenergic receptor (P35348 whole entry): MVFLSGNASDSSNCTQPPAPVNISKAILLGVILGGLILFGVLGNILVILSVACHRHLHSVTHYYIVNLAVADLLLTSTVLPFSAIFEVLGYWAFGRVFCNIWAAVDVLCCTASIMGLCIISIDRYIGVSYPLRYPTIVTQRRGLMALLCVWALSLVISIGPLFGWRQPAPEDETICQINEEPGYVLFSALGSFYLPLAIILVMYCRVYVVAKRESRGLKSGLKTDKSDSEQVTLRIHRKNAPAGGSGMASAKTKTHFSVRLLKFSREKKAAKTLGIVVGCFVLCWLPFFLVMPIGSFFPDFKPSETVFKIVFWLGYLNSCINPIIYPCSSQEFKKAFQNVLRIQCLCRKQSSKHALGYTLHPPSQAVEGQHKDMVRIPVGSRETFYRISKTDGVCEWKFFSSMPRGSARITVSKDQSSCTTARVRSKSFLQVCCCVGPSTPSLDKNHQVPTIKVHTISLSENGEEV
For test [5], the target named is Alpha-2A adrenergic receptor (Homo sapiens) (UniProt P08913). Conditions: MDCK, 10 uM.
Chain of Alpha-2A adrenergic receptor (Homo sapiens) (P08913 whole entry): as the sequence (P08913 whole entry) above
Test [6] deals with T1, Mu-type opioid receptor (Homo sapiens, UniProt P35372). As to the kind of experiment: Displacement of [3H]DAMGO from human MOR expressed in HEK cells after 90 mins by microbeta scintillation counting method. It is filed as cell-based, HEK293.
T1 sequence (P35372 whole entry): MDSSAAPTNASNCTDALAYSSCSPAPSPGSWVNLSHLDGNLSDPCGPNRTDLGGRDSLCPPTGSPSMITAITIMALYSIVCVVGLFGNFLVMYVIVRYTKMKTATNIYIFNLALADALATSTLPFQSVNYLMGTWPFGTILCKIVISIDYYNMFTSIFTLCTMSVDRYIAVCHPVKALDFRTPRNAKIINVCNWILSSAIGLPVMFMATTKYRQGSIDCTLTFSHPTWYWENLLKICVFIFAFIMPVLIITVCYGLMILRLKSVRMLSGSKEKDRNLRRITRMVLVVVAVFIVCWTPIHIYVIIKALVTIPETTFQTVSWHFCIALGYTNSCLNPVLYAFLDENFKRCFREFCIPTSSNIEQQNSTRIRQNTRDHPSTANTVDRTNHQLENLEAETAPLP
Test [7] concerns the target Sodium-dependent noradrenaline transporter (Homo sapiens, UniProt P23975). As to the kind of experiment: Displacement of [3H]Nisoxetine from human NET expressed in HEK cells measured after 90 mins by microbeta scintillation counting method. Type of test: cell-based, HEK293.
Test [8] deals with T2, Muscarinic acetylcholine receptor M3 (Homo sapiens, UniProt P20309). Briefly: Binding affinity to human M3 receptor expressed in CHO cells measured after 90 mins by radioligand binding assay. Type of test: cell-based.
Test [9] addresses Muscarinic acetylcholine receptor M4 (Homo sapiens, UniProt P08173). Briefly: Binding affinity to human M4 receptor expressed in CHO cells measured after 90 mins by radioligand binding assay. Type of test: cell-based.
For test [10], the system named is PC-12. Conditions: Rattus norvegicus, 10 uM.
The next test concerns the target D(2) dopamine receptor (Homo sapiens, UniProt P14416). Briefly: Displacement of [3H]N-methylspiperone from human D2 receptor expressed in fibroblast cells measured after 90 mins by microbeta scintillation counting method. It is filed as cell-based.
In test [11] the target is T1, Mu-type opioid receptor. Conditions: HEK293, 10 uM.
The subject of test [12] is PC-12. As to the kind of experiment: Selectivity ratio of Ki for guinea pig sigma1 receptor to Ki for sigma2 receptor in rat PC12 cells. Type of test: cell-based.
In test [13] the target is Delta-type opioid receptor (Homo sapiens, UniProt P41143). As to the kind of experiment: Displacement of [3H]DADLE from human DOR expressed in HEK cells measured after 90 mins by microbeta scintillation counting method. Type of test: cell-based, HEK293.
Chain of Delta-type opioid receptor (P41143 whole entry): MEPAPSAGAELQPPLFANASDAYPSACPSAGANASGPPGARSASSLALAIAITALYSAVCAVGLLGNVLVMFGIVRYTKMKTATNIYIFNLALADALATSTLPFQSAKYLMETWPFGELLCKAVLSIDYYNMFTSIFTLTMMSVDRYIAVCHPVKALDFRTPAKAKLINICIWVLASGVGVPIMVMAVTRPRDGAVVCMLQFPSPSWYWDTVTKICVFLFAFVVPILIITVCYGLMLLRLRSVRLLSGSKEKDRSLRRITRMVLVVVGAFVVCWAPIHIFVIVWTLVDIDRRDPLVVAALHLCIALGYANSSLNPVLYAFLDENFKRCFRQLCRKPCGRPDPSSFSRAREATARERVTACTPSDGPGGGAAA
Test [14] concerns the target Sigma non-opioid intracellular receptor 1 (Cavia porcellus, UniProt Q60492). As to the kind of experiment: Displacement of [3H]pentazocine from guinea pig sigma1 receptor measured after 90 mins by microbeta scintillation counting method.
Test [15] has as its target 5-hydroxytryptamine receptor 5A (Homo sapiens, UniProt P47898). Briefly: Displacement of [3H]LSD from human 5-HT5A receptor expressed in Flp-In CHO cells measured after 90 mins by microbeta scintillation counting method. Type of test: cell-based.
Test [16] has as its target Alpha-2C adrenergic receptor (Homo sapiens) (UniProt P18825). The following applies: MDCK, 10 uM.
For test [17], the target named is Muscarinic acetylcholine receptor M5 (Homo sapiens, UniProt P08912). As to the kind of experiment: Binding affinity to human M5 receptor expressed in CHO cells measured after 90 mins by radioligand binding assay. It is filed as cell-based.
Chain of Muscarinic acetylcholine receptor M5 (P08912 whole entry): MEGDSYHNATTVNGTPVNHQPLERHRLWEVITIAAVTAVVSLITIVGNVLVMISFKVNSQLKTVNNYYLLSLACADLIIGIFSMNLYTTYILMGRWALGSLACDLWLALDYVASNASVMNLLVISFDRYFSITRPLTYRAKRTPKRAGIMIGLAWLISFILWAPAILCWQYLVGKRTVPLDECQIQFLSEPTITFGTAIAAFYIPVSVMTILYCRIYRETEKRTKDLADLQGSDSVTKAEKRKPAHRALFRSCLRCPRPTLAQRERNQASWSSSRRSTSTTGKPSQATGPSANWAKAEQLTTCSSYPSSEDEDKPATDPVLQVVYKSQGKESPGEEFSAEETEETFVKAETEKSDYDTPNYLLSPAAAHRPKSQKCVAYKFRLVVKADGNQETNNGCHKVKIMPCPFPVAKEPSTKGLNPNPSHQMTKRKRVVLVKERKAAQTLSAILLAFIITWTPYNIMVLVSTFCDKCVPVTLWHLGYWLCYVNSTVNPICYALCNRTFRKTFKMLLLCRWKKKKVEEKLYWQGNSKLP
The target in a further test is D(1B) dopamine receptor (Homo sapiens, UniProt P21918). Briefly: Displacement of [3H]SCH23390 from human D5 receptor expressed in HEK-T cells measured after 90 mins by microbeta scintillation counting method. It is filed as cell-based.
Chain of D(1B) dopamine receptor (P21918 whole entry): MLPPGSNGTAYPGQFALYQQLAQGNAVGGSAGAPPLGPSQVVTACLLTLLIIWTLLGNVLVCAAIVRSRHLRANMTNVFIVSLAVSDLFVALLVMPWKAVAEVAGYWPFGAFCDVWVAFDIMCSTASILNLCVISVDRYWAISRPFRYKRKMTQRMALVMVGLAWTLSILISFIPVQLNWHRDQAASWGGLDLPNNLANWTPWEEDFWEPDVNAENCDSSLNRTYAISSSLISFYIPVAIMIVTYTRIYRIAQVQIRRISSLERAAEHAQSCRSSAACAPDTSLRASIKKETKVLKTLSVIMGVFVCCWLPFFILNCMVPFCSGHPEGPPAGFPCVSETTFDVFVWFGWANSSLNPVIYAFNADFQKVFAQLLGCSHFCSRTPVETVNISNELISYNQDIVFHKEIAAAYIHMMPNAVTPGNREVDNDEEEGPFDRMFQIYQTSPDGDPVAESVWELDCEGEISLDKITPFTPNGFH
In test [18] the target is Kappa-type opioid receptor (Homo sapiens, UniProt P41145). The following applies: HEKT, 10 uM.
Test [19] concerns the target 5-hydroxytryptamine receptor 2B (Homo sapiens, UniProt P41595). Conditions: HEK293, 10 uM.
In test [20] the target is 5-hydroxytryptamine receptor 2C (Homo sapiens) (UniProt P28335). Conditions: HEK293, 10 uM.
The target of test [21] is T2, Muscarinic acetylcholine receptor M3. Briefly: Binding affinity to human M3 receptor expressed in CHO cells at 10 uM measured after 90 mins by radioligand binding assay relative to control. It is filed as cell-based.
Test [22] addresses Sodium-dependent dopamine transporter (Homo sapiens, UniProt Q01959). Conditions: HEK293, 10 uM.
The target of test [23] is Muscarinic acetylcholine receptor M5 (Homo sapiens) (UniProt P08912). As to the kind of experiment: Binding affinity to human M5 receptor expressed in CHO cells at 10 uM measured after 90 mins by radioligand binding assay relative to control. It is filed as cell-based.
Chain of Muscarinic acetylcholine receptor M5 (Homo sapiens) (P08912 whole entry): as the sequence (P08912 whole entry) above
A further test has as its target Histamine H3 receptor (Homo sapiens, UniProt Q9Y5N1). The following applies: HEK293, 10 uM.

Where only a bound is given, the exact number is not on record here.

Chain of Sigma non-opioid intracellular receptor 1 (Q60492 whole entry): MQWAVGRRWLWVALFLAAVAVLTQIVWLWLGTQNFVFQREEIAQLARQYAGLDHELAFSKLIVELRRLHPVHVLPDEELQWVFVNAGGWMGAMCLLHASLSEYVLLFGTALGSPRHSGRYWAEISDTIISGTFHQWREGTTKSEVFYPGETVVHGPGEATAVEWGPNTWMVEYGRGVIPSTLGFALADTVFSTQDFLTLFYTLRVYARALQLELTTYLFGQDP
Chain of Muscarinic acetylcholine receptor M1 (P11229 whole entry): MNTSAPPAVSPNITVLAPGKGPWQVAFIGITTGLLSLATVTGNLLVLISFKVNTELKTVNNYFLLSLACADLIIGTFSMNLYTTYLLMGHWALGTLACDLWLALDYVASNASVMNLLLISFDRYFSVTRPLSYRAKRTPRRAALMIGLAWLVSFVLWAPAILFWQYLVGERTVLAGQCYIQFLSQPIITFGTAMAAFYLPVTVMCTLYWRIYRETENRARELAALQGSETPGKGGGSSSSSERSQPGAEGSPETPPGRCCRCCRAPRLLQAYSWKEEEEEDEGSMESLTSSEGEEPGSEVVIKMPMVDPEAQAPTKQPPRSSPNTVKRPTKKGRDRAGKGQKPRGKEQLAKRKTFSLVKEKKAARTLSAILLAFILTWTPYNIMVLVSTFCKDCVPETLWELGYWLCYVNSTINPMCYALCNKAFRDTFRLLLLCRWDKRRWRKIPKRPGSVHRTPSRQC
Chain of D(2) dopamine receptor (P14416 whole entry): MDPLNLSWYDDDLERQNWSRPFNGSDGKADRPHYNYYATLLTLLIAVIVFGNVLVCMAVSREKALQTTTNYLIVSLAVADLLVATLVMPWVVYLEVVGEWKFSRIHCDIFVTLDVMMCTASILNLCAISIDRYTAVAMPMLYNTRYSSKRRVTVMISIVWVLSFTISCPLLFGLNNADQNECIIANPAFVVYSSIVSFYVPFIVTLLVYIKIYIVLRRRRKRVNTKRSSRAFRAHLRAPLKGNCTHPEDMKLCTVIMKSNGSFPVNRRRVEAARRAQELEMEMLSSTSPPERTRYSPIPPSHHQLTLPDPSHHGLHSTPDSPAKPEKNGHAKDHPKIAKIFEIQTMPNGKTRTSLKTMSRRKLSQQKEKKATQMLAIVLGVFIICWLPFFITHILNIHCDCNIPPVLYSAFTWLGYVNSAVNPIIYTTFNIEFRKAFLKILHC
Chain of Sodium-dependent noradrenaline transporter (P23975 whole entry): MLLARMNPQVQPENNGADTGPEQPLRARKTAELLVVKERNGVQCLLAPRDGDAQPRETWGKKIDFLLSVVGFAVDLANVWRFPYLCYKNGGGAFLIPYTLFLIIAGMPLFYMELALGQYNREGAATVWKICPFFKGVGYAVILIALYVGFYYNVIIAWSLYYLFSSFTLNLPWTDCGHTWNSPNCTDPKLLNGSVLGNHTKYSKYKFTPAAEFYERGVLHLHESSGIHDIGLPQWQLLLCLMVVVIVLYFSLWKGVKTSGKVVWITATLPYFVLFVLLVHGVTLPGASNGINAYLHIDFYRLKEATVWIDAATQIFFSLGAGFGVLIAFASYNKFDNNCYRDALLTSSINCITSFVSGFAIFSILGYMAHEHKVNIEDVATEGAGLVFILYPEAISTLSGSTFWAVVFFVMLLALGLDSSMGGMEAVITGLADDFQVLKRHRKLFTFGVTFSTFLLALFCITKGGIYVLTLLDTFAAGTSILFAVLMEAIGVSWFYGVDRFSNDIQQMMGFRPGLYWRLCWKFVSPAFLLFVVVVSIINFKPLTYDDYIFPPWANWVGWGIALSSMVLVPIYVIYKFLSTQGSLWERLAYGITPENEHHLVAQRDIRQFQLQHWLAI
Chain of 5-hydroxytryptamine receptor 5A (P47898 whole entry): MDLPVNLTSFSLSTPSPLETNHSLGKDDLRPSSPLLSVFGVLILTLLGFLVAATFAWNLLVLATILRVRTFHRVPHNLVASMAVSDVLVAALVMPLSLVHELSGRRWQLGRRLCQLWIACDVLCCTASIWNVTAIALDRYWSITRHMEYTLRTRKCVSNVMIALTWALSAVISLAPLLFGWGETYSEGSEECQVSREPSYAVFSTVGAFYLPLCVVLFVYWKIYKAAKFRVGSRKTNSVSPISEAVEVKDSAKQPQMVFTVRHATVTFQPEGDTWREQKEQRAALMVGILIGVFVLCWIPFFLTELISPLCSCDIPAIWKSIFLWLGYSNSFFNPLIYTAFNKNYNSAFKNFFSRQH

As to `CCCN1CC[C@H]2c3cc4ccc(C(F)(F)F)cc4nc3[C@H](CC)[C@H]3CCC[C@@H]1[C@@H]32`, the Ki – broadly, a measure of affinity in units of concentration, obtained from inhibition or displacement – was more than 10 µM in [1]; 1.59 µM in test [3]; more than 10 µM in test [4]; 2.36 µM on Mu-type opioid receptor [6]; more than 10 µM in test [7]; more than 10 µM in [8]. Further, the Ki in test [9] was more than 10 µM; at D(2) dopamine receptor it was more than 10 µM; in test [13], more than 10 µM; in test [14] it was 0.423 µM; in test [15], more than 10 µM; in test [17], more than 10 µM. For the same compound, the Ki on D(1B) dopamine receptor was more than 10 µM. Further, the inhibition (in [2]; in test [5]; with PC-12 [10]; on Mu-type opioid receptor [11]; in [16]; in [18]) was more than 50% each time. Also, the Ratio Ki in the test with PC-12 [12] came out at 28.
For the compound `CN1CC[C@H]2CC(=O)[C@H](Cc3ccccc3)[C@H]3CCC[C@@H]1[C@H]23`, the inhibition (in [19]; in [20]; in the test on PC-12 [10]; in test [22]; on Histamine H3 receptor) was more than 50% in each case. Further, the Ki in [1] is more than 10 µM; in test [3] it was more than 10 µM; in [4] it was more than 10 µM; at Mu-type opioid receptor [6] it was more than 10 µM; in test [7], more than 10 µM; in test [8], 0.661 µM. The Ki in test [9] is more than 10 µM; on D(2) dopamine receptor, more than 10 µM; in [13], more than 10 µM; in [14], 0.0015 to 0.002 µM; in test [15], more than 10 µM; in [17], 3.49 µM. Besides, on D(1B) dopamine receptor, the Ki is more than 10 µM. For the same compound, the Activity in [21] and in [23] was more than 50% in each case.

Values taken from ChEMBL document CHEMBL3868615, “Decahydrobenzoquinolin-5-one sigma receptor ligands: Divergent development of both sigma 1 and sigma 2 receptor selective examples” (Bioorg Med Chem Lett, 2016).
